Source: patent US10828300B2, “Substituted 2,4-diaminopyrimidines as kinase inhibitors” (Celgene CAR LLC, priority 2008, dated 2020)

What follows are molecules tested against T1, BTK (Homo sapiens (Human), UniProt Q06187) (assay: BTK occupancy from in vitro samples by ELISA (Ramos cells, probe I-215)). Conditions: probe I-215 ELISA.
Format: cell-based
From the text: Measuring BTK occupancy from in vitro samples by ELISA
In order to determine the amount of free BTK in cell or tissue lysates, an ELISA protocol was employed that utilizes a biotinylated probe compound that binds only to free, unoccupied BTK. The conjugated biotin is captured on a streptavidin-coated ELISA plate and detected with a mouse anti-BTK antibody (Becton Dickinson, Franklin Lakes, N.J., USA) and a secondary goat anti-mouse HRP antibody (Zymed, South San Francisco, Calif., USA).
All samples were prepared with equal concentrations of Biorad lysis buffer (Hercules, Calif., USA), 0.5% bovine serum albumin in PBS with 0.05% Tween-20 to give a final concentration of 1 μM I-215. Samples were incubated in a mixing plate for 1 hr at room temperature while shaking to allow probe compound I-215 to bind to free BTK. After incubation with I-215, samples were added to a washed, streptavidin-coated ELISA plate (Pierce, Rockford, Ill., USA) and incubated for 1 hr at room temperature while shaking. The plate was then washed with PBS containing 0.05% Tween-20 using an automatic plate washer. Anti-BTK antibody was prepared at 1:1000 dilution in 0.5% BSA in PBS (0.05% Tween-20) and added to the ELISA plate. The plate was incubated for 1 hr at room temperature while shaking. The plate was washed as described above and the secondary HRP antibody was prepared at 1:5000 dilution in 0.5% BSA in PBS (0.05% Tween-20). The plate was incubated and washed as described above. TMB was added to the plate, and OD650 was monitored until reaching 1 OD unit. The reaction was then stopped with addition of H2SO4. The plate was analyzed using Gen 5 software, and a 4 Parameter Logistic curve was employed to quantitate samples. Recombinant BTK (Invitrogen, Carlsbad, Calif., USA) was used for the standard curve.
A concentration designated as “A” is greater than 1 nM; a concentration designated as “B” is greater than 10 nM; and a concentration designated as “C” is greater than 50 nM.

T1 sequence (Q06187 whole entry): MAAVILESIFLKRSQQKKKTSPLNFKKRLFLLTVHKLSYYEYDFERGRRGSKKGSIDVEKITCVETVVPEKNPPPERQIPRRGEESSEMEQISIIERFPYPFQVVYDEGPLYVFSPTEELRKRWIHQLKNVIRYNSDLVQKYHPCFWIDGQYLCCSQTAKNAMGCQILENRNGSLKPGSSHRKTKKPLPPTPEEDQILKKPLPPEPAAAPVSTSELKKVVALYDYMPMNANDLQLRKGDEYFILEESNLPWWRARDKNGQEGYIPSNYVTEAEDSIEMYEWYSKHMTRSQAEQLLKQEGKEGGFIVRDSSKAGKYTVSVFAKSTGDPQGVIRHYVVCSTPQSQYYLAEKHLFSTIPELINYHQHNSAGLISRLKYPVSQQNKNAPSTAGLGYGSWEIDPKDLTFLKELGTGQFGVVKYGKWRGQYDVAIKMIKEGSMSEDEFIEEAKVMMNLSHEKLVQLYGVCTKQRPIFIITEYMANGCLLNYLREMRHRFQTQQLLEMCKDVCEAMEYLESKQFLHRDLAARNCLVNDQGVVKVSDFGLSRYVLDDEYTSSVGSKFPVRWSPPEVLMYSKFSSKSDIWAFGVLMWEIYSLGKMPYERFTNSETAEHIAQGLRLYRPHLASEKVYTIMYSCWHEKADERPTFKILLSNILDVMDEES

Molecule	concentration at which >50% of BTK is occupied	concentration at which >90% of BTK is occupied
C=CC(=O)Nc1cccc(Nc2nc(Nc3ccc(OCCOC)c(F)c3)ncc2F)c1 [Compound I-96, N-(3-(2-(3-fluoro-4-(2-methoxyethoxy)phenylamino)-5-fluoropyrimidin-4-ylamino)phenyl)acrylamide]	A (greater than 1 nM)	B (greater than 10 nM)
C=CC(=O)Nc1cccc(Nc2nc(Nc3ccc(OCCOC)cc3)ncc2F)c1 [Compound I-182, N-(3-(5-fluoro-2-(4-(2-methoxyethoxy)phenylamino)pyrimidin-4-ylamino)phenyl)acrylamide]	A (greater than 1 nM)	C (greater than 50 nM)

These molecules were tested against T1, BTK (assay: Mass spectrometry for BTK (intact protein, covalent modification)). Conditions: intact BTK, 1 hr, 10× fold excess of compound.
Format: binding
Procedure: Mass Spectrometry for BTK
Intact BTK was incubated for 1 hr at a 10× fold excess of I-7 to protein. Aliquots (2 μl) of the samples were diluted with 10 μl of 0.1% TFA prior to micro C4 ZipTipping directly onto the MALDI target using Sinapinic acid as the desorption matrix (10 mg/ml in 0.1% TFA:Acetonitrile 20:80).

Molecule	covalent modification of BTK by mass spectrometry
2-((4-(5-fluoro-2-(3-trifluoromethoxyphenylamino)pyrimidin-4-ylamino)phenyl)(hydroxy)methyl)acrylonitrile [Compound I-163]	completely modify
C=C(C#N)C(O)c1cccc(Nc2nc(Nc3ccc(OCCOC)cc3)ncc2F)c1 (centres unmarked) [Compound I-71, 2-((3-(5-fluoro-2-(4-(2-methoxyethoxy)phenylamino)pyrimidin-4-ylamino)phenyl)(hydroxy)methyl)acrylonitrile]	completely modify
C=CC(=O)Nc1cccc(Nc2nc(Nc3ccc(OCCOC)c(F)c3)ncc2F)c1 [Compound I-96, N-(3-(2-(3-fluoro-4-(2-methoxyethoxy)phenylamino)-5-fluoropyrimidin-4-ylamino)phenyl)acrylamide]	completely modify
C=CC(=O)N1CCOc2ccc(Nc3ncc(F)c(Nc4cccc(Cl)c4)n3)cc21 [Compound I-149, 1-(6-(4-(3-chlorophenylamino)-5-fluoropyrimidin-2-ylamino)-2H-benzo[b][1,4]oxazin-4(3H)-yl)prop-2-en-1-one]	completely modify
C=C(C#N)C(O)c1ccc(Nc2nc(Nc3ccccc3)ncc2F)cc1 (centres unmarked) [Compound I-161, 2-((4-(5-fluoro-2-(phenylamino)pyrimidin-4-ylamino)phenyl)(hydroxy)methyl)acrylonitrile]	completely modify
C=CC(=O)Nc1cccc(Nc2nc(Nc3ccc(OCCOC)cc3)ncc2F)c1 [Compound I-182, N-(3-(5-fluoro-2-(4-(2-methoxyethoxy)phenylamino)pyrimidin-4-ylamino)phenyl)acrylamide]	completely modify
C=CC(=O)N1CCC[C@@H](Nc2nc(Nc3cccc(OC)c3)ncc2F)C1 [Compound I-195, (R)-1-(3-(5-fluoro-2-(3-methoxyphenylamino)pyrimidin-4-ylamino)piperidin-1-yl)prop-2-en-1-one]	completely modify
CC(C)=CC(=O)c1cccc(Nc2nc(Nc3cccc(OCCN(C)C)c3)ncc2F)c1 [Compound I-207]	completely modify
C=CC(=O)N(C)Cc1ccc(Nc2nc(Nc3ccccc3)ncc2C)cc1 [Compound I-219, N-methyl-N-(4-(5-methyl-2-(phenylamino)pyrimidin-4-ylamino)benzyl)acrylamide]	completely modify
C=CC(=O)Nc1cccc(Nc2nc(Nc3cccc(OC(F)(F)F)c3)ncc2F)c1 [Compound I-244, N-(3-(5-fluoro-2-(3-(trifluoromethoxy)phenylamino)pyrimidin-4-ylamino)phenyl)acrylamide]	completely modify

These molecules were tested against T1, BTK (assay: Washout experiment with Ramos cells (PLCγ2 phosphorylation)). Conditions: Ramos washout assay, 100 nM compound for 1 hour.
Format: cell-based
Procedure: Washout Experiment with Ramos Cells
Ramos cells were serum starved for one hour in RPMI media +1% glutamine at 37° C. After starvation, Ramos cells were treated with 100 nM compound diluted in serum free RPMI media for 1 hour. After compound treatment, the media was removed and cells were washed with compound-free media. Subsequently, Ramos cells were washed every 2 hours and resuspended in fresh compound-free media. Cells were collected at specified timepoints, treated with 1 ug anti-human IgM (Southern Biotech cat #2022-01) for 10 minutes on ice to induce BCR signaling and then washed in PBS. Ramos cells were then lysed in Cell Extraction Buffer (Invitrogen FNN0011) supplemented with Roche complete protease inhibitor tablets (Roche 11697498001) and phosphatase inhibitors (Roche 04 906 837 001) and 18 ug total protein lysate was loaded in each lane. Inhibition of BTK kinase activity was assayed by measuring its substrate (PLCγ2) phosphorylation by western blot with phospho-specific antibodies from Cell Signaling Technologies cat#3871. The results of this experiment with compounds I-2, I-4 and I-7 are depicted in FIGS. 1, 2 and 3.

Molecule	BTK Inhibition Type
C=CC(=O)Nc1cccc(Nc2nc(Nc3ccccc3)ncc2F)c1 [Compound I-28, N-(3-(5-fluoro-2-(phenylamino)pyrimidin-4-ylamino)phenyl)acrylamide]	irreversible
C#CCOc1cccc(Nc2ncc(C)c(Nc3cccc(NC(=O)C=C)c3)n2)c1 [Compound I-35, N-(3-(5-methyl-2-(3-(prop-2-ynyloxy)phenylamino)pyrimidin-4-ylamino)phenyl) acrylamide]	irreversible
Cc1cnc(Nc2ccccc2)nc1Nc1cccc(NC(=O)/C=C/CN(C)C)c1 [Compound I-38, (E)-4-(dimethylamino)-N-(3-(5-methyl-2-(phenylamino)pyrimidin-4-ylamino)phenyl)but-2-enamide]	reversible
C=CC(=O)Nc1cccc(Oc2nc(Nc3ccccc3)ncc2F)c1 [Compound I-228, N-(3-(5-fluoro-2-(phenylamino)pyrimidin-4-yloxy)phenyl)acrylamide]	irreversible
C=CC(=O)Nc1cccc(Nc2nc(Nc3ccccc3)ncc2C(N)=O)c1 [Compound I-230, 4-(3-acrylamidophenylamino)-2-(phenylamino)pyrimidine-5-carboxamide]	irreversible
C=CC(=O)Nc1cccc(Nc2nc(Nc3cccc(OC)c3)ncc2C(F)(F)F)c1 [Compound I-242, N-(3-(5-trifluoromethyl-2-(3-methoxyphenylamino)pyrimidin-4-ylamino)phenyl)acrylamide]	irreversible
C=CC(=O)Nc1cccc(Nc2nc(Nc3ccc(OC)nc3)ncc2F)c1 [Compound I-243, N-(3-(5-fluoro-2-(6-methoxypyridin-3-ylamino)pyrimidin-4-ylamino)phenyl)acrylamide]	irreversible
C=CC(=O)Nc1cccc(Nc2nc(Nc3ccc(F)cc3)ncc2F)c1 [Compound I-247, N-(3-(5-fluoro-2-(4-fluorophenylamino)pyrimidin-4-ylamino)phenyl)acrylamide]	irreversible
C=CC(=O)Nc1cccc(Oc2nc(Nc3ccccc3)ncc2C)c1 [Compound I-248, N-(3-(5-methyl-2-(phenylamino)pyrimidin-4-yloxy)phenyl)acrylamide]	irreversible
